What was measured:
[1] = Drug substance stability on storage and under accelerated/ICH stress conditions; format: physicochemical
Method: (§1) Preparation of the clinical dosage form consists of a dry fill of the drug substance into gelatin capsules with no excipients. For the Phase II study, capsules with the salt of Formula (II)(200 mg or 400 mg, free base weight) are machine-filled and packaged in blister strips with aluminum foil backing, which are stored in cardboard boxes. Matching placebo capsules are also available in the same packaging.

sTREM2 = assay: Phase IIa CSF glial biomarker sTREM2; format: in vivo, human
Text: (§2) CSF samples were obtained at screening Visit and final Visit via lumbar puncture to determine levels of tau, p-tau, Aβ40, Aβ42 and AChE activity as an initial set of CSF biomarkers. Aliquots of CSF were made available for emerging CSF biomarker methods such as measurement of additional biomarkers including neurofilaments light chain, neurogranin, SNAP-25, synaptotagmin, YKL-40, TREM2, tau oligomers and for measurement of drug level in selected patients based on the time period between last dose of drug and CSF sampling (FIG. 25 and FIG. 58).
(§3) Baseline CSF samples are obtained prior to administration via lumbar puncture. These samples are used to determine levels of tau, p-tau, Aβ40, Aβ42, AChE, neurofilament light chain, SNAP-25, synaptotagmin-1, neurogranin, sTREM, and YKL-40. Aliquots of CSF are also made available for emerging CSF biomarker methods such as measurement of tau oligomers and for measurement of drug level in selected patients based on time period between last dose of the salt of Formula (II) and CSF sampling. […] Many of these biomarkers can also be measured in blood or plasma. The change in values over the time period from pre-treatment to post-treatment are of particular importance. […]

[2] = Aqueous solubility of the drug substance; format: physicochemical; details: water
Method: as §1

SYT1 = assay: Phase IIa CSF pre-synaptic biomarker SYT1; format: in vivo, human
Text: as §2, §3

[3] = tested on: healthy elderly volunteers; assay: Phase I (1b) safety and tolerability, 600 mg b.i.d. for 10 days
Method: Trial specific stopping rules were set to protect the trial subjects. Dosing would have been stopped for all subjects and the trial terminated if any of the stopping rules had occurred.
15 healthy adults were screened within three weeks prior to the baseline visit. Following 5 screening failures, 10 healthy adults, 5 aged 18-64 years and 5 aged 65-84 years were enrolled.
A phase 1b studied was conducted in 10 elderly normal subjects for the purpose of obtaining plasma and CSF coordinated drug levels and to further assess safety at a dose of 600 mg bid over a 10-day period. The study was double-blinded and placebo controlled with 8 subjects receiving drug.

[4] = 600 mg b.i.d. oral, 10 days, 8 subjects
[5] = non-serious AE, 600 mg b.i.d. oral, 10 days

CC[C@H](C)[C@H](N)C(=O)NCCN1CCOCC1 [LM11A-31-BHS, Tris[(2S,3S)-2-amino-3-methyl-N-(2-morpholinoethyl)pentanamide] tetra(monohydrogensulfate), monosulfate]
impurities following storage at ICH stress conditions ([1]; GMP lots): no impurities above the LOD | changes related to assay or impurities ([1]; Phase I drug substance lot, six months accelerated conditions, or 48 months at 25° C./60% RH): no significant changes | stability under accelerated temperature and humidity conditions ([1]; drug substance): very good stability | changes in the drug substance on storage ([1]; through 18 months at −20° C., 5° C., 25° C./60% RH or 40° C./75% RH, other than moisture content): no significant changes | CSF sTREM2, drug dose analysis (sTREM2; 200 and 400 mg doses): nominal reduction at the 200 and 400 mg doses | CSF sTREM2, drug effect (sTREM2; combined drug group, 6-month period): no drug effect was detected | solubility [2]: > 30 mg/mL | CSF SYT1 levels, drug dose analysis (SYT1; 200 and 400 mg doses): only nominal reductions below baseline at both doses | CSF SYT1 change in the drug group (SYT1; combined drug group, 6 months, p=0.06): trend for a decrease | safety and tolerability in repeated dose schedule ([3]; 600 mg BID up to ten days of treatment): support the safety and tolerability | number of deaths (all causes) ([3]; 600 mg b.i.d. oral, 10 days): 0 | number of deaths resulting from adverse events ([3]; 600 mg b.i.d. oral, 10 days): 0 | serious adverse event Headache, occurrences causally related to treatment/all ([3]; 600 mg b.i.d. oral, 10 days): 0/1 | drug related serious adverse events [3, 4]: 0 drug related adverse events | mild drug related adverse events [3, 4]: 4 drug related adverse events | moderate drug related adverse events [3, 4]: 0 drug related adverse events | severe drug related adverse events [3, 4]: 0 drug related adverse events | Abdominal pain, occurrences (all) [3, 5]: 1 | Arthralgia, occurrences (all) [3, 5]: 3 | Diarrhea, occurrences (all) [3, 5]: 1 | Dry eye, occurrences (all) [3, 5]: 0 | Flatulence, occurrences (all) [3, 5]: 3 | Gamma-glutamyltransferase increased, occurrences (all) [3, 5]: 1 | Headache, occurrences (all) [3, 5]: 7 | Oropharyngeal pain, occurrences (all) [3, 5]: 0 | Polyuria, occurrences (all) [3, 5]: 1 | Presyncope, occurrences (all) [3, 5]: 0 | alterations in physical examination, vital signs and ECG recordings ([3]; phase 1b, 600 mg bid, 10-day period, 8 subjects receiving drug): no clinically relevant alterations | changes in haematological and biochemistry parameters ([3]; phase 1b, 600 mg bid, 10 days, neither clinical relevance nor relationship with the study drug): Minimal changes

From patent US20240398822A1, “METHODS AND COMPOSITIONS FOR TREATING AND MANAGING ALZHEIMER'S DISEASE” (Pharmatrophix, Inc., priority 2021, published 2024)
